target: T1, histamine-3 receptors (H3 receptor) (Rattus norvegicus, UniProt Q9QYN8); assay: (3H)-N-α-methylhistamine binding to rat cortical membranes (histamine-3 receptor ligands); details: male Sprague-Dawley rat brain cortical membranes; (3H)-N-α-methylhistamine ~0.6 nM; 30 minutes at 25° C.; Cheng-Prusoff
T1 construct: from tissue; host or cells: male Sprague-Dawley rat brain cortex membranes
Experimental: Briefly, male Sprague-Dawley rat brain cortices were homogenized (1 g tissue/10 mL buffer) in 50 mM Tris-HCl/5 mM EDTA containing protease inhibitor cocktail (Calbiochem) using a polytron set at 20,500 rpm. Homogenates were centrifuged for 20 minutes at 40,000×g. The supernatant was decanted, and pellets were weighed. The pellet was resuspended by polytron homogenization in 40 mL 50 mM Tris-HCl/5 mM EDTA with protease inhibitors and centrifuged for 20 minutes at 40,000×g. […] Rat cortical membranes (12 mg wet weight/tube) were incubated with (^3H)-N-α-methylhistamine (˜0.6 nM) with or without H3 receptor antagonists in a total incubation volume of 0.5 mL of 50 mM Tris-HCl/5 mM EDTA (pH 7.7). Test compounds were dissolved in DSMO to provide a 20 mM solution, serially diluted and then added to the incubation mixture prior to initiating the incubation assay by addition of the membranes. Thioperamide (3 μM) was used to determine nonspecific binding. Binding incubations were conducted for 30 minutes at 25° C. and terminated by addition of 2 mL of ice cold 50 mM Tris-HCl (pH 7.7) and filtration through 0.3% polyethylenimine-soaked Unifilter plates (Packard). These filters were washed 4 additional times with 2 mL of ice-cold 50 mM Tris-HCl and dried for 1 hour. Radioactivity was determined using liquid scintillation counting techniques. Results were analyzed by Hill transformation and Ki values were determined using the Cheng-Prusoff equation.

T1 sequence (Q9QYN8 whole entry): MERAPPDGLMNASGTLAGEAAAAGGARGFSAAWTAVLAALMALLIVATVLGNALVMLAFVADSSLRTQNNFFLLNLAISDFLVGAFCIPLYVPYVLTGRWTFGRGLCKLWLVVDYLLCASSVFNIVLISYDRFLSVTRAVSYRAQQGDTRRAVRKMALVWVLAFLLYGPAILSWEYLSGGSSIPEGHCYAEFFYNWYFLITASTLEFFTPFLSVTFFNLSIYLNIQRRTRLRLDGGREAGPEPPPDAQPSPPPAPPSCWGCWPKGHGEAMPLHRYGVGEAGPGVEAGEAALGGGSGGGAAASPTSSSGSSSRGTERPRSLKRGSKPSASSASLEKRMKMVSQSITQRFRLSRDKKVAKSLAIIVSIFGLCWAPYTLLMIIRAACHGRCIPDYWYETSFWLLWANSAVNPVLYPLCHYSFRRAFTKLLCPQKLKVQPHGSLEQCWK

Row | Structure (SMILES) | Ki
1 | C[C@@H]1CCCN1CCc1cc2cc(-c3noc(-c4ccccc4Cl)n3)ccc2o1 [Example 90, 5-(2-chlorophenyl)-3-(2-{2-[(2R)-2-methylpyrrolidin-1-yl]ethyl}-1-benzofuran-5-yl)-1,2,4-oxadiazole] | 21 nM
2 | C[C@@H]1CCCN1CCc1cc2cc(-c3noc(-c4ccc(F)c(Cl)c4)n3)ccc2o1 [Example 96, 5-(3-chloro-4-fluorophenyl)-3-(2-{2-[(2R)-2-methylpyrrolidin-1-yl]ethyl}-1-benzofuran-5-yl)-1,2,4-oxadiazole] | 223 nM
3 | C[C@@H]1CCCN1CCc1oc2ccc(-c3ccc(C#N)cc3)cc2c1-c1ccco1 [Example 102, 4-(3-(2-furyl)-2-{2-[(2R)-2-methylpyrrolidin-1-yl]ethyl}-1-benzofuran-5-yl)benzonitrile] | 18 nM
4 | C[C@@H]1CCCN1CCc1oc2ccc(-c3ccc(C#N)cc3)cc2c1-c1ccsc1 [Example 104, 4-[2-{2-[(2R)-2-methyl-1-pyrrolidinyl]ethyl}-3-(3-thienyl)-1-benzofuran-5-yl]benzonitrile] | 41 nM
5 | C[C@@H]1CCCN1CCc1cc2cc(-c3ccc(F)cc3)ccc2o1 [Example 113, (2R)-1-{2-[5-(4-fluorophenyl)-1-benzofuran-2-yl]ethyl}-2-methylpyrrolidine] | 77 nM
6 | C[C@@H]1CCCN1CCc1cc2cc(-c3ccc(Cl)c(Cl)c3)ccc2o1 [Example 114, (2R)-1-{2-[5-(3,4-dichlorophenyl)-1-benzofuran-2-yl]ethyl}-2-methylpyrrolidine] | 97 nM
7 | Cc1ccccc1-c1ccc2oc(CCN3CCC[C@H]3C)cc2c1 [Example 115, (2R)-2-methyl-1-{2-[5-(2-methylphenyl)-1-benzofuran-2-yl]ethyl}pyrrolidine] | 33 nM
8 | Cc1cccc(-c2ccc3oc(CCN4CCC[C@H]4C)cc3c2)c1 [Example 116, (2R)-2-methyl-1-{2-[5-(3-methylphenyl)-1-benzofuran-2-yl]ethyl}pyrrolidine] | 30 nM
9 | Cc1ccc(-c2ccc3oc(CCN4CCC[C@H]4C)cc3c2)cc1 [Example 117, (2R)-2-methyl-1-{2-[5-(4-methylphenyl)-1-benzofuran-2-yl]ethyl}pyrrolidine] | 110 nM
10 | COC(=O)c1ccc(-c2ccc3oc(CCN4CCC[C@H]4C)cc3c2)cc1 [Example 118, methyl 4-(2-{2-[(2R)-2-methyl-1-pyrrolidinyl]ethyl}-1-benzofuran-5-yl)benzoate] | 42 nM
11 | COc1ccccc1-c1ccc2oc(CCN3CCC[C@H]3C)cc2c1 [Example 119, (2R)-1-{2-[5-(2-methoxyphenyl)-1-benzofuran-2-yl]ethyl}-2-methylpyrrolidine] | 66 nM
12 | COc1cccc(-c2ccc3oc(CCN4CCC[C@H]4C)cc3c2)c1 [Example 120, (2R)-1-{2-[5-(3-methoxyphenyl)-1-benzofuran-2-yl]ethyl}-2-methylpyrrolidine] | 23 nM
13 | C[C@@H]1CCCN1CCc1cc2cc(-c3cccc(F)c3)ccc2o1 [Example 122, (2R)-1-{2-[5-(3-fluorophenyl)-1-benzofuran-2-yl]ethyl}-2-methylpyrrolidine] | 17 nM

Molecules with a lower Ki, results first:

Row | Ki | Structure (SMILES)
14 | 10 nM | C[C@@H]1CCCN1CCc1cc2cc(-c3noc(Cc4ccc(F)cc4)n3)ccc2o1 [Example 91, 5-(4-fluorobenzyl)-3-(2-{2-[(2R)-2-methylpyrrolidin-1-yl]ethyl}-1-benzofuran-5-yl)-1,2,4-oxadiazole]
15 | 15 nM | COc1ccc(Cc2nc(-c3ccc4oc(CCN5CCC[C@H]5C)cc4c3)no2)cc1 [Example 92, 5-(4-methoxybenzyl)-3-(2-{2-[(2R)-2-methylpyrrolidin-1-yl]ethyl}-1-benzofuran-5-yl)-1,2,4-oxadiazole]
16 | 16 nM | C[C@@H]1CCCN1CCc1cc2cc(-c3noc(-c4ccccc4)n3)ccc2o1 [Example 94, 3-(2-{2-[(2R)-2-methylpyrrolidin-1-yl]ethyl}-1-benzofuran-5-yl)-5-phenyl-1,2,4-oxadiazole]
17 | 12 nM | C[C@@H]1CCCN1CCc1cc2cc(-c3noc(-c4ccc(F)cc4)n3)ccc2o1 [Example 95, 5-(4-fluorophenyl)-3-(2-{2-[(2R)-2-methylpyrrolidin-1-yl]ethyl}-1-benzofuran-5-yl)-1,2,4-oxadiazole]
18 | 1.4 nM | C[C@@H]1CCCN1CCc1cc2cc(-c3noc(CCl)n3)ccc2o1 [Example 97, 5-(chloromethyl)-3-(2-{2-[(2R)-2-methylpyrrolidin-1-yl]ethyl}-1-benzofuran-5-yl)-1,2,4-oxadiazole]
19 | 0.7 nM | CCCc1nc(-c2ccc3oc(CCN4CCC[C@H]4C)cc3c2)no1 [Example 98, 3-(2-{2-[(2R)-2-methylpyrrolidin-1-yl]ethyl}-1-benzofuran-5-yl)-5-propyl-1,2,4-oxadiazole]
20 | 3.6 nM | CCc1nc(-c2ccc3oc(CCN4CCC[C@H]4C)cc3c2)no1 [Example 99, 5-ethyl-3-(2-{2-[(2R)-2-methylpyrrolidin-1-yl]ethyl}-1-benzofuran-5-yl)-1,2,4-oxadiazole]
21 | 6 nM | Cc1nc(-c2ccc3oc(CCN4CCC[C@H]4C)cc3c2)no1 [Example 100, 5-methyl-3-(2-{2-[(2R)-2-methylpyrrolidin-1-yl]ethyl}-1-benzofuran-5-yl)-1,2,4-oxadiazole]
22 | 3.4 nM | C[C@@H]1CCCN1CCc1oc2ccc(-c3ccc(C#N)cc3)cc2c1Br [Example 101, 4-(3-bromo-2-{2-[(2R)-2-methylpyrrolidin-1-yl]ethyl}-1-benzofuran-5-yl)benzonitrile]
23 | 13 nM | C[C@@H]1CCCN1CCc1oc2ccc(-c3ccc(C#N)cc3)cc2c1-c1cccnc1 [Example 103, 4-[2-{2-[(2R)-2-methyl-1-pyrrolidinyl]ethyl}-3-(3-pyridinyl)-1-benzofuran-5-yl]benzonitrile]
24 | 6 nM | C[C@@H]1CCCN1CCc1oc2ccc(-c3ccc(C#N)cc3)cc2c1-c1ccsc1C=O [Example 105, 4-(3-(2-formyl-3-thienyl)-2-{2-[(2R)-2-methyl-1-pyrrolidinyl]ethyl}-1-benzofuran-5-yl)benzonitrile]
25 | 2.3 nM | Cc1cc(-c2ccc3oc(CCN4CCC[C@H]4C)cc3c2)ccc1C#N [Example 106, 2-methyl-4-(2-{2-[(2R)-2-methyl-1-pyrrolidinyl]ethyl}-1-benzofuran-5-yl)benzonitrile]
26 | 8 nM | Cc1cc(C#N)ccc1-c1ccc2oc(CCN3CCC[C@H]3C)cc2c1 [Example 107, 3-methyl-4-(2-{2-[(2R)-2-methyl-1-pyrrolidinyl]ethyl}-1-benzofuran-5-yl)benzonitrile]
27 | 10 nM | Cc1cc(-c2ccc(C#N)cc2)cc2cc(CCN3CCC[C@H]3C)oc12 [Example 109, 4-(7-methyl-2-{2-[(2R)-2-methyl-1-pyrrolidinyl]ethyl}-1-benzofuran-5-yl)benzonitrile]
28 | 6 nM | C[C@@H]1CCCN1CCc1cc2cc(-c3ccc(C#N)cc3)cc(F)c2o1 [Example 110, 4-(7-fluoro-2-{2-[(2R)-2-methyl-1-pyrrolidinyl]ethyl}-1-benzofuran-5-yl)benzonitrile]
29 | 9 nM | C[C@@H]1CCCN1CCc1cc2cc(-c3ccc(C#N)c(F)c3)ccc2o1 [Example 111, 2-fluoro-4-(2-{2-[(2R)-2-methyl-1-pyrrolidinyl]ethyl}-1-benzofuran-5-yl)benzonitrile]
30 | 3 nM | C[C@@H]1CCCN1CCc1cc2cc(-c3cccc(C#N)c3)ccc2o1 [Example 112, 3-(2-{2-[(2R)-2-methyl-1-pyrrolidinyl]ethyl}-1-benzofuran-5-yl)benzonitrile]
